Measured values published in patent publication US8940334B2, “Pharmaceutical composition of an anthracycline” (priority 2007, dated 2015).

Key:
[1] = Elution efficiency from HepaSphere microspheres (HPLC-MS/UV); assay type: physicochemical; details: up to 168 h
Experimental: Nemorubicin hydrochloride (1 mg drug/ml HepaSphere™, 2.5 mg drug/ml HepaSphere™) and doxorubicin (1 mg drug/ml HepaSphere™, 2.5 mg drug/ml HepaSphere™, 25 mg drug/ml HepaSphere™) were mixed with HepaSphere™ microspheres (50-100 μm). After 20 minutes of incubation the elution efficiency of nemorubicin hydrochloride and doxorubicin was measured up to 168 h.
At desiderate elution time, supernatant was collected carefully by syringe, avoiding beads aspiration. Then solutions were collected in Eppendorf tubes and stored at −20° C. for further analysis.
The released amount of nemorubicin hydrochloride and doxorubicin was evaluated by HPLC-MS/UV analysis (the method used is reported in Example 2).

[2] = tested on: human mammary adenocarcinoma cells (MCF-7); experiment: Cytotoxicity of elution fractions from DC Bead microspheres on MCF-7 cells (ATPLite); assay type: cell-based; details: MCF-7, 72 h treatment
Experimental: (§1) The release of nemorubicin hydrochloride from DC Bead™ microspheres was evaluated in PBS and in human plasma. At the end of the loading time and at each elution point, loaded nemorubicin hydrochloride-DC Bead™ microspheres were washed by warm water and finally incubated in warm PBS or human plasma at 37° C.
At desiderate elution time supernatant was collected carefully by syringe, avoiding beads aspiration. Then solutions were filtered by 70 μm nylon filcon filter (BD Biosciences) to avoid carry-over contamination, collected in Eppendorf tubes and finally stored at −20° C. for further analysis.
Samples were split for: • evaluation of the cytotoxicity of nemorubicin hydrochloride and doxorubicin against tumor cells (as dose able to inhibit cell growth by 50%; IC50). • evaluation of the released amount of nemorubicin hydrochloride and doxorubicin by HPLC-MS/UV analysis (the method used is reported in Example 2). In Vitro Antitumor Activity
The cytotoxic effect of elution fractions was investigated on human mammary adenocarcinoma cells (MCF-7, ECACC source). Cells were grown in E-MEM/Glutamax medium (Invitrogen), 10% FBS (EuroClone), and 1% Non-Essential AminoAcids (Invitrogen) and maintained at 37° C. at 5% CO2. For cytotoxicity test, cells were plated at density of 5,000 cells/well in 96-well plates (Corning) and grown for 24 h before treatment. Cells were treated for 72 h by raise dilutions of elution fractions. At the end of treatment, cells were incubated with TS substrate (ATPLite™). Plates were read for chemiluminescence (480/540 nm) by Perkin Elmer Envision™ plate reader.
IC50 were calculated by LSW Data Analysis™ curve fitting. The IC50 value of nemorubicin hydrochloride and doxorubicin in the medium eluted from DC Bead™ microspheres was compared to that of standard nemorubicin hydrochloride or doxorubicin fresh solutions.

[3] = Size and appearance of drug-loaded DC Bead microspheres by image analysis at microscope; assay type: physicochemical; details: doxorubicin 25 mg drug/ml DC Bead; over loading and elution in PBS
Experimental: Nemorubicin hydrochloride was diluted at the concentration range of from 0.1 to 2.0 mg drug/ml DC Bead™ that represent clinically applicable doses. In the following examples microspheres of 100-300 μm diameters (DC Bead™) were used. Similar results were obtained when microspheres of 300-500 μm diameters (DC Bead™) were used.
The size and spherical shape of microspheres were analyzed after loading with nemorubicin hydrochloride and during the release of the drug up to 16 days. As comparison DC Bead™ microspheres were loaded with doxorubicin at the clinically used dosage of 25 mg drug/ml DC Bead™.
Drug loading: DC Bead™ microspheres were conditioned in water for 10 min. Then the water was discarded and nemorubicin hydrochloride or doxorubicin was added.
Drug release: DC™ microspheres with or without drug were incubated in Phosphate Buffer Saline (PBS) or human plasma from healthy donors up to 16 days. The size and spherical shape of DC Bead™ microspheres were measured at different time points.
Size and appearance of nemorubicin hydrochloride-DC Bead™ microspheres during drug-loading and drug-elution were determined by a Leica DM IRB (Leica) microscope equipped by Evolution MP Color CCD Camera (Media Cybernatics). The analysis of size was performed by Image Pro Plus™ (Media Cybernatics). […] At least four field-images for samples were analyzed to support the statistical analysis.

[4] = Release of drug from DC Bead microspheres in human plasma; assay type: physicochemical; details: 37° C.
Experimental: The measurements of nemorubicin hydrochloride in the elution medium were carried out with HPLC-MS/UV analysis performed by Finnigan MAT/LCQ Deca XP ion trap MS equipped with ESI ion source, directly connected to a Surveyor HPLC system (Thermo Electron Corporation). HPLC-MS/UV separations were set up on Phenomenex Gemini Phenyl, 3 μm, 50×4.6 mm by Acetate Buffer:Acetonitrile 1:9. UV detection was done at 480 nm and for ESI-MS analysis a heated capillary temperature at 275° C. and spray voltage at 4 KV was applied.
as §1
At desiderate elution time supernatant was collected carefully by syringe, avoiding beads aspiration. Then solutions were filtered by 70 μm nylon filcon filter (BD Biosciences) to avoid carry-over contamination, collected in Eppendorf tubes and finally stored at −20° C. for further analysis. […]

## COc1cccc2c1C(=O)c1c(O)c3c(c(O)c1C2=O)C[C@@](O)(C(=O)CO)C[C@@H]3O[C@H]1C[C@H](N)[C@H](O)[C@H](C)O1 [Doxorubicin, reference compound]
[1]; Dose 1 mg drug/ml HepaSphere (50-100 μm)
  % total released drug: 7%
[1]; Dose 2.5 mg drug/ml HepaSphere (50-100 μm)
  % total released drug: 4%
[1]; Dose 25 mg drug/ml HepaSphere (50-100 μm)
  % total released drug: 35%
[2]; MCF7, 72 h, Standard (fresh drug solution)
  IC50: 250 nM
[2]; MCF7, 72 h, fraction eluted at 72 h
  IC50: 140 nM
[2]; MCF7, fraction eluted at 24 h
  IC50: 250 nM
[2]; MCF7, fraction eluted at 48 h
  IC50: 180 nM
[2]; MCF7, fraction eluted at 96 h
  IC50: 200 nM
[2]; MCF7, fraction eluted at 120 h
  IC50: 450 nM
[2]; MCF7, fraction eluted at 144 h
  IC50: 1500 nM
[2]; MCF7, fraction eluted from DC Bead microspheres at 1 h
  IC50: 300 nM
[3]
  size range of loaded microspheres (diameter): 85-125 μm
[4]
  total drug released: 2.5%
